This note sets out measurements from ChEMBL document CHEMBL1137005 (Bioorg Med Chem Lett, 2009).

The term pIC50 denotes the IC50 on a negative log10 scale, so that one unit is a factor of ten.

pIC50: −log10 of the molar value. Bounds are passed on as bounds.

Assay [1] addresses T1, Bifunctional epoxide hydrolase 2 (Homo sapiens, UniProt P34913).
T1 sequence (P34913 whole entry): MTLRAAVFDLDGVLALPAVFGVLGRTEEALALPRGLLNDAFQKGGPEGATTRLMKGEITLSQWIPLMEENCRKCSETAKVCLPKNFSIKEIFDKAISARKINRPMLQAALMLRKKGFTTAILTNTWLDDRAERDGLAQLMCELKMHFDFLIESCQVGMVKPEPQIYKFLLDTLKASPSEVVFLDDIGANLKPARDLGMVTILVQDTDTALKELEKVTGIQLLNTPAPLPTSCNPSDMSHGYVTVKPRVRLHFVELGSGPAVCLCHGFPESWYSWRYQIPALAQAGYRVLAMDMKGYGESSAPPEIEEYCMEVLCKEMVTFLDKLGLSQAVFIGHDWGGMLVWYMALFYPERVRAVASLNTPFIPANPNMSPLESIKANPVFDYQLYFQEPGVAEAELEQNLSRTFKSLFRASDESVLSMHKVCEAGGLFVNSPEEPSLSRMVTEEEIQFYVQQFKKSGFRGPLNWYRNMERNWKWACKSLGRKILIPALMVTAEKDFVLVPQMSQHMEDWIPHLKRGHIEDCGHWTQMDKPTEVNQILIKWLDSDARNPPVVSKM
Put plainly: Inhibition of human soluble epoxide hydrolase in HEK293 cells assessed as DHET production. Format: cell-based.

Assay [2] addresses T1, Bifunctional epoxide hydrolase 2. As to the kind of experiment: Inhibition of human soluble epoxide hydrolase.
The next assay concerns the target Cytochrome P450 2D6 (Homo sapiens, UniProt P10635). Put plainly: Inhibition of CYP2D6. Format: ADME.
Assay [3] deals with Sodium channel protein type 5 subunit alpha (Homo sapiens, UniProt Q14524). Put plainly: Inhibition of Voltage-gated sodium channel subunit alpha Nav1.5.
In another assay the target is T2, Epoxide hydrolase 1 (Homo sapiens, UniProt P07099).
T2 sequence (P07099 whole entry): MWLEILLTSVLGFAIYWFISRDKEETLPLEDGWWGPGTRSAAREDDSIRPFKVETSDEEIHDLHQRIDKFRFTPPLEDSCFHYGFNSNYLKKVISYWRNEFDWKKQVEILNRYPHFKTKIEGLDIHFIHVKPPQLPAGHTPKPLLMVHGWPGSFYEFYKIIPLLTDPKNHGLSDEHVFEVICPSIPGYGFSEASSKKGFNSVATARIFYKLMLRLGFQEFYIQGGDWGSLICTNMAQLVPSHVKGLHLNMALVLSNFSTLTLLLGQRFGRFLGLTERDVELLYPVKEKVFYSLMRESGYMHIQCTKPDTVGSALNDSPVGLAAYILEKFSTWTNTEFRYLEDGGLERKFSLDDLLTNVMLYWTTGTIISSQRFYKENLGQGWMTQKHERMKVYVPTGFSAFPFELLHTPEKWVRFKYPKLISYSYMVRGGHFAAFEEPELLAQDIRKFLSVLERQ
As to the kind of experiment: Inhibition of human microsomal epoxide hydrolase.

Assay [4] has as its target T3, Bifunctional epoxide hydrolase 2 (Rattus norvegicus, UniProt P80299).
T3 sequence (P80299 whole entry): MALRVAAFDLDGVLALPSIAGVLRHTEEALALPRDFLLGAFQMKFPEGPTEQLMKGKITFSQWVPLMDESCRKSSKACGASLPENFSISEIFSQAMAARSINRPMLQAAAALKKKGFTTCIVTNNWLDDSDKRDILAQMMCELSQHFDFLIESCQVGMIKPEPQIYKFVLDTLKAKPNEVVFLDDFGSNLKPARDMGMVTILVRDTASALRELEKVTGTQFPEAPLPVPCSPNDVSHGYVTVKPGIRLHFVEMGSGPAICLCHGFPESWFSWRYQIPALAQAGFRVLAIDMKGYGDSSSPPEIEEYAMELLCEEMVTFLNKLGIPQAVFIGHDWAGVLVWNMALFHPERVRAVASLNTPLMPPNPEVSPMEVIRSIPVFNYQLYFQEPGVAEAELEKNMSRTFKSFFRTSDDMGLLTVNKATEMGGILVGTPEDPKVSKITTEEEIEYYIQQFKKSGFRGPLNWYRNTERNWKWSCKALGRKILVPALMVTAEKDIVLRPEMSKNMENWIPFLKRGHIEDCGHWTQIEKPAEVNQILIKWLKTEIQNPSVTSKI
As to the kind of experiment: Inhibition of rat soluble epoxide hydrolase.

The next assay has as its target Cytochrome P450 2C9 (Homo sapiens, UniProt P11712). Put plainly: Inhibition of CYP2C9. Format: ADME.
The next assay deals with Cytochrome P450 3A4 (Homo sapiens, UniProt P08684). Put plainly: Inhibition of CYP3A4. Format: ADME.
For assay [5], the target named is Voltage-dependent L-type calcium channel subunit alpha-1C (Homo sapiens, UniProt Q13936). Put plainly: Activity at Cav 1.2 channel.
Assay [6] in a line: Inhibition of potassium channel IKr.
In a further assay the test system is Blood. Put plainly: Inhibition of DHET production in rat whole blood at 1 uM after 1 hr. Set-up: Activity: scale not given: the % may be the effect or the level left. Format: functional.
A short description of assay [7]: Binding affinity to […] channel diltiazem binding site.

Cytochrome P450 3A4, sequence (P08684 whole entry): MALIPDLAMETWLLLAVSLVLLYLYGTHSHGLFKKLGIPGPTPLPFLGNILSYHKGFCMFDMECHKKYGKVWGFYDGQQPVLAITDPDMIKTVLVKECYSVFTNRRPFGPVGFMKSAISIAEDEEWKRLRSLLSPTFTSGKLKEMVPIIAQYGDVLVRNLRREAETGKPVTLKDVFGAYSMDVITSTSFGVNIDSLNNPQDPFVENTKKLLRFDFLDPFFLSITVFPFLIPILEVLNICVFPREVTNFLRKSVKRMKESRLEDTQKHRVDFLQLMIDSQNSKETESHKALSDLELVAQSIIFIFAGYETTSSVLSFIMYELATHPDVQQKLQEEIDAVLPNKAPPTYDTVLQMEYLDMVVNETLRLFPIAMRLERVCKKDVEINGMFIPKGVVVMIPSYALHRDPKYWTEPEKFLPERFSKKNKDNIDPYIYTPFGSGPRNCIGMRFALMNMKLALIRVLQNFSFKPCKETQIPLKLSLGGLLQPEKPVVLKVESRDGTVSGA
Cytochrome P450 2C9, sequence (P11712 whole entry): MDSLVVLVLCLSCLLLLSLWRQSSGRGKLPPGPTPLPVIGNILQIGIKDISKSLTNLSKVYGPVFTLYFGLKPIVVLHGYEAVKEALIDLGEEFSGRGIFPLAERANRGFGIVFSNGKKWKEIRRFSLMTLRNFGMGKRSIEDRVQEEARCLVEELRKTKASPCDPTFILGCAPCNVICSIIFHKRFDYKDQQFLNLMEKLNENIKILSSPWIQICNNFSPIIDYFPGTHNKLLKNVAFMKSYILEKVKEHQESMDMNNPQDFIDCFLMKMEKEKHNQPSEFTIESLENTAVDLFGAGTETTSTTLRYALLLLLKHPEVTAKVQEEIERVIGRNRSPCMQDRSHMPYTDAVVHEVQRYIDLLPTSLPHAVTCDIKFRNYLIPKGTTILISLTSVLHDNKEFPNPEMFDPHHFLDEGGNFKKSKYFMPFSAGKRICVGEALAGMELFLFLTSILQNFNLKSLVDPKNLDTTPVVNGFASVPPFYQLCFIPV
Voltage-dependent L-type calcium channel subunit alpha-1C, sequence (Q13936 whole entry): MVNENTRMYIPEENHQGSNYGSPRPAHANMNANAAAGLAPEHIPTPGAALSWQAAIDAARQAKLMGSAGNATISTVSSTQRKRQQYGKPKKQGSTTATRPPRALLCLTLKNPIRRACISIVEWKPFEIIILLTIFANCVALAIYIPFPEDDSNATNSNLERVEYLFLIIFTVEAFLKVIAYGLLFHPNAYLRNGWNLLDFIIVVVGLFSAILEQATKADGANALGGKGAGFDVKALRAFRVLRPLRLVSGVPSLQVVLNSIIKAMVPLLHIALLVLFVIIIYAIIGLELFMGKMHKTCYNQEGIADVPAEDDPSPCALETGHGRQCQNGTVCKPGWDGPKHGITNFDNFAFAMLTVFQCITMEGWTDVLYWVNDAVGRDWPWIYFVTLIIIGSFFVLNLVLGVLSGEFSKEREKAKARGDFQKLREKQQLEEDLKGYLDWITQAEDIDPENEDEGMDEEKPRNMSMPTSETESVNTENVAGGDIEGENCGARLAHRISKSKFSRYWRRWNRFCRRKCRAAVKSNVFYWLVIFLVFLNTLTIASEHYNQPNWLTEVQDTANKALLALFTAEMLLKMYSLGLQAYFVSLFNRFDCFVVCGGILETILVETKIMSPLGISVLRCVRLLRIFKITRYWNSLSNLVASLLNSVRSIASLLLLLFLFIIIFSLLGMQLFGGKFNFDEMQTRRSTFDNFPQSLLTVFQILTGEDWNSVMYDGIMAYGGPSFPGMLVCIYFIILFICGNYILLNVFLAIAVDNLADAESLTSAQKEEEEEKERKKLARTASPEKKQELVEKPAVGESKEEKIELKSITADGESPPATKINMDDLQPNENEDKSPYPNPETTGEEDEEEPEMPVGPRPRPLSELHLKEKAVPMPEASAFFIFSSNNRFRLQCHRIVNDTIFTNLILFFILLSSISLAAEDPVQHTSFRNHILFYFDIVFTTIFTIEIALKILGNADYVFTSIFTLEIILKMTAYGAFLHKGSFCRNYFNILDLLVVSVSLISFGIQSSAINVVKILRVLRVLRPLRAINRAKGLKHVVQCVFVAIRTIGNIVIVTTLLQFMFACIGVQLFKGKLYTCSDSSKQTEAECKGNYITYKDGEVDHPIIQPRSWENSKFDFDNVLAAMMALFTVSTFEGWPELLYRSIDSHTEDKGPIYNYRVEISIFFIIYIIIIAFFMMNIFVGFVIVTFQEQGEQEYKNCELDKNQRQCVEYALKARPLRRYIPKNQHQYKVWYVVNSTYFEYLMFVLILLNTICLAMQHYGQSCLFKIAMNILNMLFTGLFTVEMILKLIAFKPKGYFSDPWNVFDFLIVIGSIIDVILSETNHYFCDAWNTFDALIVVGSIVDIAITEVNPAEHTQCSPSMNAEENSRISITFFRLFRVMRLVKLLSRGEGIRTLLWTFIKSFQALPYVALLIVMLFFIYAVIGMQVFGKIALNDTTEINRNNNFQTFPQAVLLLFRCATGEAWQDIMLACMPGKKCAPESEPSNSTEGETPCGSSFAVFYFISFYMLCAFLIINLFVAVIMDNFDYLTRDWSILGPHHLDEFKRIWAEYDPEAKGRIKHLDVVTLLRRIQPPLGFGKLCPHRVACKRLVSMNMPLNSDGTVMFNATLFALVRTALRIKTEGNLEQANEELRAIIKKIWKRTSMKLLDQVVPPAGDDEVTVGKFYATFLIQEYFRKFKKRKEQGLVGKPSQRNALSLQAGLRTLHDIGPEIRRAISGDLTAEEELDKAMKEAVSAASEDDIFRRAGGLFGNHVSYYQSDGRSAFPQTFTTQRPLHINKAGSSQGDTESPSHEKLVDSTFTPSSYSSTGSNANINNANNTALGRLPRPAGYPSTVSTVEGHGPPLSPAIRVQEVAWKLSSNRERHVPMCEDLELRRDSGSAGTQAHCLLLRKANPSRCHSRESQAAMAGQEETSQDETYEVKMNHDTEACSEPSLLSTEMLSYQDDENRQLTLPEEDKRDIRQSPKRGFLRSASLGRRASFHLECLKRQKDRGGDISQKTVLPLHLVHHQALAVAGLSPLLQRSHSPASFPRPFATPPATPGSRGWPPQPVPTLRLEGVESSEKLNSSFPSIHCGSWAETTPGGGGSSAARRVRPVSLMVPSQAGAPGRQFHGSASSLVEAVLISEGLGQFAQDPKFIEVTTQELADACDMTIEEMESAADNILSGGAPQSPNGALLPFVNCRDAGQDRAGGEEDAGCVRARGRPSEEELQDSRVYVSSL
Cytochrome P450 2D6, sequence (P10635 whole entry): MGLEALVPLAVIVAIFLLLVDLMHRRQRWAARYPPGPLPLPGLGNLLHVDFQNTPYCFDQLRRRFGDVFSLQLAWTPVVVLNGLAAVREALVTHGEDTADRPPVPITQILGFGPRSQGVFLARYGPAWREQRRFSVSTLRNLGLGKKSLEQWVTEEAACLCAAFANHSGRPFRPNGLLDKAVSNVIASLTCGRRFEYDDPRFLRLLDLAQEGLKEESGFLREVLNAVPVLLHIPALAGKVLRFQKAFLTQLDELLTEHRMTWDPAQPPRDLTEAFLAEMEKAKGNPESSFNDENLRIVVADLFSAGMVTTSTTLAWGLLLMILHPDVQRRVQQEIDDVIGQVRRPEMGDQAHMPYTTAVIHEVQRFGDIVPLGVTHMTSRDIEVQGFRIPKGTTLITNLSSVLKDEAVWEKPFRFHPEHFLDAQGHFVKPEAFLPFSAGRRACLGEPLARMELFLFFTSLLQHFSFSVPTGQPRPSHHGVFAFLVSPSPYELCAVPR

Regarding `CS(=O)(=O)c1ccc2c(c1)CCC1(CCCN(C(=O)N[C@H]3C[C@@H]3c3ccccc3)CC1)O2` (relative stereo), the pIC50 in assay [1] is 8.52; in [2], 7.96; at Cytochrome P450 2D6, less than 5.00; in assay [3], less than 5.00; on Epoxide hydrolase 1, 4.26; in [4], 7.31. For the same compound, the pIC50 on Cytochrome P450 2C9 was less than 5.00; on Cytochrome P450 3A4 it was less than 5.00; in assay [5], less than 4.52; in assay [6], 5.70.

With `O=C(N[C@H]1C[C@@H]1c1ccccc1)N1CCC2(CCc3ccccc3O2)CC1` (racemic), the pIC50 in [2] was 8.40; on Cytochrome P450 2D6, less than 5.00; in assay [3] it was less than 5.00; against Epoxide hydrolase 1, less than 4.00; in assay [4], 7.96; on Cytochrome P450 2C9, greater than 5.00. Moreover, the pIC50 in assay [7] is 5.22; against Cytochrome P450 3A4 it was less than 5.00; in assay [6], 4.82. Moreover, the Activity in the assay on Blood stood at 20%.

`O=C(N[C@H]1C[C@@H]1c1ccccc1)N1CCC2(CCc3cc(F)ccc3O2)CC1` (racemic): the pIC50 in assay [1] was greater than 9.00; in assay [2], 8.52; against Cytochrome P450 2D6, less than 5.00; in assay [3], less than 5.00; against Epoxide hydrolase 1, less than 4.00; in assay [4] it was 7.74. For the same compound, the pIC50 was greater than 5.00 against Cytochrome P450 2C9, 5.70 in assay [7], less than 5.00 at Cytochrome P450 3A4 and 5.15 in assay [6].

`O=C1CC2(CCN(C(=O)NC3CCc4ccccc4CC3)CC2)Oc2ccccc21`: the pIC50 is 8.10 in assay [2], 7.55 in assay [4], 5.30 in assay [7] and 5.30 in assay [6].

Turning to `CS(=O)(=O)c1ccc2c(c1)CCC1(CCN(C(=O)N[C@H]3C[C@@H]3c3ccccc3)CC1)O2`, the pIC50 in assay [1] was greater than 9.00; in [2], 8.52; at Cytochrome P450 2D6, less than 5.00; in assay [3], less than 5.00; on Epoxide hydrolase 1 it was 4.62; in assay [4], 7.64. Also, the pIC50 is less than 5.00 at Cytochrome P450 2C9, 4.55 in [7], less than 5.00 against Cytochrome P450 3A4 and 4.82 in assay [6].

With `O=C(CCc1ccccc1)N1CCC2(CCc3cc(F)ccc3O2)CC1`, the pIC50 in assay [1] is 8.52; in [2], 8.15; against Cytochrome P450 2D6, greater than 5.00; in assay [3], greater than 5.00; against Epoxide hydrolase 1, less than 4.00; in assay [4], 8.00. Also, the pIC50 is greater than 5.00 against Cytochrome P450 2C9, 5.52 in [7], less than 5.00 against Cytochrome P450 3A4 and 5.22 in assay [6].

On to `O=C1CC2(CCN(C(=O)N[C@H]3C[C@@H]3c3ccccc3)CC2)Oc2ccccc21` (relative stereo), for which the pIC50 in assay [1] (hek293) was 8.52; in assay [2], 7.96; against Cytochrome P450 2D6, less than 5.00; in assay [3] it was less than 5.00; on Epoxide hydrolase 1, less than 4.00; in assay [4], 7.54. Moreover, the pIC50 against Cytochrome P450 2C9 was less than 5.00; at Cytochrome P450 3A4, less than 5.00; in assay [6] it was 4.77.

On to `CS(=O)(=O)c1ccc2c(c1)C(=O)CC1(CCN(C(=O)N[C@@H]3CC[C@@H](c4ccccc4)C3)CC1)O2` (racemic), for which the pIC50 in assay [2] is 8.15; at Cytochrome P450 2D6, less than 5.00; in assay [3], less than 5.00; against Epoxide hydrolase 1, 5.00; in assay [4], 7.68; at Cytochrome P450 2C9, greater than 5.00. In addition, the pIC50 in assay [7] is 4.74; against Cytochrome P450 3A4, less than 5.00; in [6], 5.52.

With `O=C1CC2(CCN(C(=O)N[C@H]3C[C@@H]3c3ccccc3)CC2)Oc2ccc(-c3ccncc3)cc21` (racemic), the pIC50 in [2] was 9.00; on Cytochrome P450 2D6, greater than 5.00; in assay [3] it was less than 5.00; against Epoxide hydrolase 1, less than 4.00; in [4], 8.15; against Cytochrome P450 2C9, greater than 5.00. The pIC50 in assay [7] was 5.40; at Cytochrome P450 3A4, greater than 5.00; in assay [6], 6.70.

Regarding `O=C1CC2(CCN(C(=O)NC3CCc4ccccc43)CC2)Oc2ccccc21` (racemic), the pIC50 was 7.52 in [1]; 7.70 in assay [2]; less than 5.00 at Cytochrome P450 2D6; greater than 5.00 in [3]; 4.55 at Epoxide hydrolase 1; 7.46 in assay [4]. The pIC50 at Cytochrome P450 2C9 was greater than 5.00; in assay [7], 5.22; on Cytochrome P450 3A4 it was less than 5.00; in assay [6], 5.22.

For `Cn1nccc1Nc1ccc2c(c1)C(=O)CC1(CCN(C(=O)N[C@H]3C[C@@H]3c3ccccc3)CC1)O2` (racemic), the pIC50 in [1] is greater than 9.00; in assay [2], 8.52; against Cytochrome P450 2D6, less than 5.00; in [3], less than 5.00; against Epoxide hydrolase 1, less than 4.00; in assay [4], 7.89. Also, the pIC50 is 5.00 against Cytochrome P450 2C9, less than 5.00 against Cytochrome P450 3A4, 4.59 in assay [5] and 5.70 in assay [6].

Regarding `O=C(c1ccc(C(F)(F)F)cc1)N1CCC2(CCc3ccccc3O2)CC1`, the pIC50 was greater than 9.00 in [1]; 8.40 in assay [2]; less than 5.00 at Cytochrome P450 2D6; less than 5.00 in assay [3]; 4.66 at Epoxide hydrolase 1; 8.00 in assay [4]. For the same compound, the pIC50 was less than 5.00 on Cytochrome P450 2C9, 5.70 in [7], less than 5.00 on Cytochrome P450 3A4 and 6.00 in assay [6]. Further, in the assay on Blood, the Activity is reported as 48%.

With `O=C1CC2(CCN(C(=O)N[C@H]3C[C@@H]3c3ccccc3)CC2)Oc2ccccc21`, the pIC50 was 8.52 in [1]; 8.52 in [2]; less than 5.00 against Cytochrome P450 2D6; less than 5.00 in assay [3]; 8.05 in assay [4]; 5.00 on Cytochrome P450 2C9. Also, the results for the pIC50 (in assay [7]; against Cytochrome P450 3A4; in assay [6]) were less than 4.52, less than 5.00 and 4.85, respectively.

On to `O=C(N[C@H]1C[C@@H]1c1ccccc1)N1CCC2(CC1)CC(O)c1ncccc1O2` (relative stereo), for which the pIC50 in [1] was 8.10; in [2], 8.10; against Cytochrome P450 2D6, less than 5.00; in assay [3] it was less than 5.00; against Epoxide hydrolase 1, less than 4.00; in [4], 7.51. In addition, the pIC50 at Cytochrome P450 2C9 is less than 5.00; in [7], less than 4.52; against Cytochrome P450 3A4, less than 5.00; in assay [6], less than 4.52. The Activity in the assay on Blood turned out to be 7.3%.

With `O=C1CC2(CCN(C(=O)NC3CCc4ccccc4C3)CC2)Oc2ccccc21` (racemic), the pIC50 in assay [2] was 8.30; against Cytochrome P450 2D6 it was less than 5.00; in [3] it was 6.00; on Epoxide hydrolase 1, 4.59; in assay [4], 7.41; on Cytochrome P450 2C9, less than 5.00. For the same compound, the values for the pIC50 (in assay [7]; on Cytochrome P450 3A4; in assay [6]) were 5.05, less than 5.00 and 4.92, respectively.

In the case of `Cn1nccc1-c1ccc2c(c1)C(=O)CC1(CCN(C(=O)N[C@H]3C[C@@H]3c3ccccc3)CC1)O2` (racemic), the pIC50 was greater than 9.00 in [1]; 8.40 in assay [2]; less than 5.00 at Cytochrome P450 2D6; less than 5.00 in [3]; 4.82 at Epoxide hydrolase 1; 7.68 in [4]. The pIC50 against Cytochrome P450 2C9 is less than 5.00; at Cytochrome P450 3A4, less than 5.00; in [5] it was 4.55; in assay [6], 5.40.
